Columns and labels:
Experiment in all cases: relative viability (nuclei count vs DMSO), 5 days (fraction); higher = more cells survive
[1] = system: BEN
Method in brief: (§1)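 Lung cancer cell lines were pin-tool dosed in 1536-well plates on the day after seeding, with either a lone drug or a fixed anchor-drug dose plus five library-drug doses (not always all listed) in √10 steps. Nuclei were counted on 4× images after 5 days. Relative viability is the ratio of treated-well to vehicle-well nuclei counts, with each value a median of duplicate plates.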

[2] = system: EPLC-272H
Method in brief: as §1

[3] = system: HCC-827
Method in brief: as §1

[4] = system: HOP-62
Method in brief: as §1

[5] = system: LU99A
Method in brief: as §1

[6] = system: LXF-289
Method in brief: as §1

[7] = system: NCI-H1437
Method in brief: as §1

[8] = system: NCI-H1666
Method in brief: as §1

[9] = system: NCI-H1915
Method in brief: as §1

[10] = system: NCI-H2170
Method in brief: as §1

[11] = system: NCI-H2228
Method in brief: as §1

[12] = system: NCI-H2342
Method in brief: as §1

[13] = system: NCI-H2347
Method in brief: as §1

[14] = system: NCI-H23
Method in brief: as §1

[15] = system: NCI-H322M
Method in brief: as §1

[16] = system: NCI-H358
Method in brief: as §1

[17] = system: NCI-H441
Method in brief: as §1

[18] = system: NCI-H522
Method in brief: as §1

[19] = system: NCI-H647
Method in brief: as §1

[20] = system: NCI-H650
Method in brief: as §1

[21] = system: NCI-H727
Method in brief: as §1

[22] = system: SK-MES-1
Method in brief: as §1

[23] = system: SW 1573
Method in brief: as §1

Q: How did the relative viability ([1]; first compound 0.08 µM) turn out when `C=C1C(=O)O[C@@H](CCCCCCCC)[C@@H]1C(=O)O` [C-75] + O=C(CCCCCCC(=O)Nc1ccccc1)NO [Vorinostat] (partner 1 µM) was run?
A: The relative viability was 0.642.

Q: What about the relative viability ([1]; first compound 0.253 µM) of the same molecule?
A: Its relative viability is 0.574.

Q: What about the relative viability ([1]; first compound 0.8 µM) of the same molecule?
A: The relative viability was 0.524.

Q: What about the relative viability ([1]; first compound 2.53 µM) of the same molecule?
A: The relative viability was 0.647.

Q: And the relative viability ([1]; first compound 8 µM)?
A: The relative viability was 0.606.

Q: And the relative viability ([2]; first compound 0.08 µM)?
A: The relative viability was 0.477.

Q: And the relative viability ([2]; first compound 0.253 µM)?
A: Its relative viability is 0.545.

Q: What about the relative viability ([2]; first compound 0.8 µM) of the same molecule?
A: Its relative viability is 0.655.

Q: What about the relative viability ([2]; first compound 2.53 µM) of the same molecule?
A: Its relative viability is 0.41.

Q: What about the relative viability ([2]; first compound 8 µM) of the same molecule?
A: The relative viability was 0.391.

Q: And the relative viability ([3]; first compound 0.253 µM)?
A: The relative viability was 0.662.

Q: What about the relative viability ([3]; first compound 0.8 µM) of the same molecule?
A: The relative viability was 0.721.

Q: And the relative viability ([3]; first compound 8 µM)?
A: The relative viability was 0.88.

Q: What about the relative viability ([4]; first compound 0.08 µM) of the same molecule?
A: Its relative viability is 0.563.

Q: And the relative viability ([4]; first compound 0.253 µM)?
A: The relative viability was 0.834.

Q: What about the relative viability ([4]; first compound 0.8 µM) of the same molecule?
A: The relative viability was 0.629.

Q: What about the relative viability ([4]; first compound 2.53 µM) of the same molecule?
A: The relative viability was 0.478.

Q: And the relative viability ([4]; first compound 8 µM)?
A: The relative viability was 0.449.

Q: And the relative viability ([5]; first compound 0.08 µM)?
A: Its relative viability is 0.476.

Q: What about the relative viability ([5]; first compound 0.253 µM) of the same molecule?
A: Its relative viability is 0.549.

Q: What about the relative viability ([5]; first compound 0.8 µM) of the same molecule?
A: The relative viability was 0.413.

Q: What about the relative viability ([5]; first compound 2.53 µM) of the same molecule?
A: Its relative viability is 0.552.

Q: What about the relative viability ([5]; first compound 8 µM) of the same molecule?
A: The relative viability was 0.495.

Q: What about the relative viability ([6]; first compound 0.08 µM) of the same molecule?
A: Its relative viability is 0.716.

Q: What about the relative viability ([6]; first compound 0.253 µM) of the same molecule?
A: Its relative viability is 0.927.

Q: What about the relative viability ([6]; first compound 0.8 µM) of the same molecule?
A: The relative viability was 0.742.

Q: And the relative viability ([6]; first compound 2.53 µM)?
A: The relative viability was 0.781.

Q: What about the relative viability ([6]; first compound 8 µM) of the same molecule?
A: The relative viability was 0.749.

Q: And the relative viability ([7]; first compound 0.08 µM)?
A: Its relative viability is 0.866.

Q: What about the relative viability ([7]; first compound 0.253 µM) of the same molecule?
A: The relative viability was 0.98.

Q: And the relative viability ([7]; first compound 0.8 µM)?
A: Its relative viability is 0.733.

Q: What about the relative viability ([7]; first compound 8 µM) of the same molecule?
A: The relative viability was 0.717.

Q: What about the relative viability ([8]; first compound 0.08 µM) of the same molecule?
A: The relative viability was 1.05.

Q: What about the relative viability ([8]; first compound 0.253 µM) of the same molecule?
A: The relative viability was 1.3.

Q: What about the relative viability ([8]; first compound 0.8 µM) of the same molecule?
A: The relative viability was 0.895.

Q: What about the relative viability ([8]; first compound 8 µM) of the same molecule?
A: Its relative viability is 0.913.

Q: And the relative viability ([9]; first compound 0.08 µM)?
A: The relative viability was 0.506.

Q: And the relative viability ([9]; first compound 0.253 µM)?
A: The relative viability was 0.548.

Q: What about the relative viability ([9]; first compound 0.8 µM) of the same molecule?
A: Its relative viability is 0.526.

Q: What about the relative viability ([9]; first compound 2.53 µM) of the same molecule?
A: The relative viability was 0.475.

Q: And the relative viability ([9]; first compound 8 µM)?
A: Its relative viability is 0.536.

Q: And the relative viability ([10]; first compound 0.08 µM)?
A: Its relative viability is 0.803.

Q: What about the relative viability ([10]; first compound 0.253 µM) of the same molecule?
A: The relative viability was 0.961.

Q: And the relative viability ([10]; first compound 0.8 µM)?
A: Its relative viability is 0.714.

Q: What about the relative viability ([10]; first compound 2.53 µM) of the same molecule?
A: The relative viability was 0.697.

Q: And the relative viability ([10]; first compound 8 µM)?
A: The relative viability was 0.808.

Q: And the relative viability ([11]; first compound 0.08 µM)?
A: Its relative viability is 0.617.

Q: And the relative viability ([11]; first compound 0.253 µM)?
A: Its relative viability is 0.681.

Q: What about the relative viability ([11]; first compound 0.8 µM) of the same molecule?
A: The relative viability was 0.661.

Q: And the relative viability ([11]; first compound 2.53 µM)?
A: The relative viability was 0.67.

Q: What about the relative viability ([11]; first compound 8 µM) of the same molecule?
A: The relative viability was 0.562.

Q: And the relative viability ([12]; first compound 0.08 µM)?
A: Its relative viability is 0.695.

Q: What about the relative viability ([12]; first compound 0.253 µM) of the same molecule?
A: Its relative viability is 0.728.

Q: What about the relative viability ([12]; first compound 0.8 µM) of the same molecule?
A: Its relative viability is 0.71.

Q: And the relative viability ([12]; first compound 2.53 µM)?
A: Its relative viability is 0.727.

Q: And the relative viability ([12]; first compound 8 µM)?
A: Its relative viability is 0.736.

Q: What about the relative viability ([13]; first compound 0.08 µM) of the same molecule?
A: The relative viability was 0.567.

Q: And the relative viability ([13]; first compound 0.253 µM)?
A: The relative viability was 0.842.

Q: And the relative viability ([13]; first compound 0.8 µM)?
A: The relative viability was 0.614.

Q: What about the relative viability ([13]; first compound 2.53 µM) of the same molecule?
A: The relative viability was 0.535.

Q: What about the relative viability ([13]; first compound 8 µM) of the same molecule?
A: The relative viability was 0.615.

Q: What about the relative viability ([14]; first compound 0.08 µM) of the same molecule?
A: The relative viability was 0.605.

Q: And the relative viability ([14]; first compound 0.253 µM)?
A: The relative viability was 0.642.

Q: What about the relative viability ([14]; first compound 0.8 µM) of the same molecule?
A: Its relative viability is 0.497.

Q: And the relative viability ([14]; first compound 2.53 µM)?
A: Its relative viability is 0.366.

Q: And the relative viability ([14]; first compound 8 µM)?
A: Its relative viability is 0.407.

Q: What about the relative viability ([15]; first compound 0.08 µM) of the same molecule?
A: The relative viability was 0.859.

Q: And the relative viability ([15]; first compound 0.253 µM)?
A: The relative viability was 1.32.

Q: And the relative viability ([15]; first compound 0.8 µM)?
A: Its relative viability is 0.851.

Q: And the relative viability ([15]; first compound 8 µM)?
A: The relative viability was 0.847.

Q: What about the relative viability ([16]; first compound 0.08 µM) of the same molecule?
A: The relative viability was 0.704.

Q: What about the relative viability ([16]; first compound 0.253 µM) of the same molecule?
A: Its relative viability is 0.789.

Q: What about the relative viability ([16]; first compound 0.8 µM) of the same molecule?
A: The relative viability was 0.689.

Q: And the relative viability ([16]; first compound 8 µM)?
A: Its relative viability is 0.608.

Q: What about the relative viability ([17]; first compound 0.08 µM) of the same molecule?
A: Its relative viability is 0.82.

Q: And the relative viability ([17]; first compound 0.253 µM)?
A: Its relative viability is 0.885.

Q: What about the relative viability ([17]; first compound 0.8 µM) of the same molecule?
A: Its relative viability is 0.764.

Q: What about the relative viability ([17]; first compound 8 µM) of the same molecule?
A: Its relative viability is 0.568.

Q: And the relative viability ([18]; first compound 0.08 µM)?
A: The relative viability was 0.912.

Q: And the relative viability ([18]; first compound 0.253 µM)?
A: The relative viability was 0.811.

Q: And the relative viability ([18]; first compound 0.8 µM)?
A: Its relative viability is 0.905.

Q: What about the relative viability ([18]; first compound 2.53 µM) of the same molecule?
A: The relative viability was 0.655.

Q: And the relative viability ([18]; first compound 8 µM)?
A: The relative viability was 0.868.

Q: What about the relative viability ([19]; first compound 0.08 µM) of the same molecule?
A: Its relative viability is 0.47.

Q: What about the relative viability ([19]; first compound 0.253 µM) of the same molecule?
A: Its relative viability is 0.873.

Q: And the relative viability ([19]; first compound 0.8 µM)?
A: The relative viability was 0.638.

Q: And the relative viability ([19]; first compound 2.53 µM)?
A: Its relative viability is 0.464.

Q: What about the relative viability ([19]; first compound 8 µM) of the same molecule?
A: The relative viability was 0.486.

Q: And the relative viability ([20]; first compound 0.08 µM)?
A: The relative viability was 0.413.

Q: What about the relative viability ([20]; first compound 0.253 µM) of the same molecule?
A: Its relative viability is 0.388.

Q: What about the relative viability ([20]; first compound 0.8 µM) of the same molecule?
A: Its relative viability is 0.401.

Q: What about the relative viability ([20]; first compound 2.53 µM) of the same molecule?
A: Its relative viability is 0.351.

Q: And the relative viability ([20]; first compound 8 µM)?
A: The relative viability was 0.416.

Q: What about the relative viability ([21]; first compound 0.08 µM) of the same molecule?
A: The relative viability was 1.22.

Q: And the relative viability ([21]; first compound 0.253 µM)?
A: Its relative viability is 1.31.

Q: And the relative viability ([21]; first compound 0.8 µM)?
A: The relative viability was 0.973.

Q: What about the relative viability ([21]; first compound 2.53 µM) of the same molecule?
A: The relative viability was 1.18.

Q: And the relative viability ([21]; first compound 8 µM)?
A: Its relative viability is 1.23.

Q: And the relative viability ([22]; first compound 0.08 µM)?
A: Its relative viability is 1.08.

Q: And the relative viability ([22]; first compound 0.253 µM)?
A: The relative viability was 1.12.

Q: What about the relative viability ([22]; first compound 0.8 µM) of the same molecule?
A: Its relative viability is 1.06.

Q: What about the relative viability ([22]; first compound 2.53 µM) of the same molecule?
A: The relative viability was 1.04.

Q: What about the relative viability ([22]; first compound 8 µM) of the same molecule?
A: Its relative viability is 1.1.

Q: What about the relative viability ([23]; first compound 0.08 µM) of the same molecule?
A: The relative viability was 0.976.

Q: And the relative viability ([23]; first compound 0.253 µM)?
A: The relative viability was 0.816.

Q: What about the relative viability ([23]; first compound 0.8 µM) of the same molecule?
A: Its relative viability is 0.701.

Q: And the relative viability ([23]; first compound 2.53 µM)?
A: The relative viability was 0.442.

Q: And the relative viability ([23]; first compound 8 µM)?
A: The relative viability was 0.517.

From the supplement of paper PMC10307832
